Two compounds from US10556860B2, “hTERT modulators and methods of use” (Arizona Board of Regents on Behalf of the University of …, priority 2015, dated 2020) can be followed below.

The structures appear in SMILES notation. Where “and” joins values, the source holds several entries; their conditions need not be identical. Equal entries are not always repeated.

For one experiment, the system named is hTERT mRNA. Put plainly: qPCR of hTERT mRNA in MCF7 cells. It is filed as cell-based, human. On the procedure: (§1) qPCR. MCF7 and melanoma cells were treated with GTC365 and BRACO-19 for 72 h. Total RNA was extracted using an RNeasy mini-prep kit (Qiagen) and quantitated by measuring absorbance at 260 nm. cDNA was synthesized using a Takara PrimeScript™ RT Reagent Kit with gDNA eraser and then used as a template for qPCR. The qPCR was performed using Kapa Probe Fast qPCR Master Mix with ABI Taqman probes of hTERT (Hs00972656_m1), BCL2 (HS00608023_m1, FAM-labeled) or MYC (Hs00153408_m1), and GAPDH (Hs02758991_g1, VIC-labeled). The Ct values were measured by running Rotor-Gene Q, and the relative quantity of hTERT, BCL2, and MYC mRNA was obtained compared to GAPDH as an internal control.
BCL2 is a downstream molecule to hTERT such that BCL2 expression is activated by hTERT to repress apoptosis. To further define the effect of GTC365 on the transcription of hTERT, the relative mRNA levels of MYC and BCL2 were determined by quantitative PCR analysis in MCF7 cells after treatment with GTC365 for 72 h. […] A series of GTC260 analogs were synthesized and their effect on hTERT gene expression in MCF7A and U87 cells determined (FIG. 7). […] Therefore, GTC365 directly repressed the transcription of hTERT and then led to a downstream decrease of BCL2 expression.

The subject of another experiment is Telomeric G4. As to the kind of experiment: CD melting (Tm), telomeric G4. It is filed as binding. On the procedure:
(§2) Circular dichroism. Oligomers of WT, G124A, G124/125A, G138/139A and G146A were synthesized and HPSF-purified by MGW Operon, Inc. For CD analysis, oligomers (5 μM) in a buffer containing 10 mM Tris-HCl (pH 7.5) and 140 mM KCl were annealed. For the CD analysis of the complex of oligomers and compounds, oligomers (5 μM) in a buffer containing 10 mM Tris-HCl (pH 7.5) and 5 mM KCl for GTC365 or 1 mM KCl for BRACO-19 were annealed. Oligomers and GTC365 or BRACO-19 were incubated overnight at room temperature. For the full-length of C-rich strand, the oligomer in a buffer of 10 mM Na cacodylate (pH 6.6) was annealed and then incubated with GTC365 overnight. CD analysis was conducted on a Jasco 810 spectropolarimeter (Jasco, Easton, Md.) using a quartz cell with 1 mm of path length, 1 nm of band width, and 1 s of response time for spectra at 20° C. Melting curves for the determination of Tm were obtained by recording ellipticity at 262 nm with increasing temperatures from 25° C. to 95° C. at a rate of 1.6° C./min. Tm of the C-rich strand with GTC365 was obtained from the CD signal at 286 nm within 10-60° C.
(§3) CD and DMS footprinting analyses were conducted to characterize the binding of GTC365 and BRACO-19 to the 5-12 G-quadruplex. […] To verify the effects of compounds on the thermal stability of the WT and the mutant G-quadruplexes, Tms were determined by CD. […] Since acridine derivatives are known to bind to telomeric G-quadruplex, the effects of GTC365 and BRACO-19 on telomeric G-quadruplex stability were compared by CD.
In contrast, BRACO-19 increased the Tm of telomeric G-quadruplex by ˜60% compared to that of the hTERT G-quadruplex at 0.5 and 1 equiv. A summary of the comparative Tms of GTC365 and BRACO-19 in hTERT and telomeric DNA is shown below.

Experiment [1] concerns hTERT WT G4 (5-12 G-quadruplex). Put plainly: CD melting (Tm), hTERT WT G4. It is filed as binding, human. On the procedure: as §2, §3
Experiment [2] has as its system hTERT under the control of the CMV promoter. As to the kind of experiment: hTERT transcription in MCF7 cells overexpressing hTERT under CMV promoter. The note with it: MCF7 cell line transfected with plasmid overexpressing hTERT (CMV promoter). It is filed as cell-based, human. On the procedure:
as §1
Establishment of stable cell lines overexpressing hTERT. The pCDNA-3XHA-hTERT plasmid containing hTERT driven by theCMV promoter was obtained from Addgene (ID: 51637) deposited by Dr. Steven Artandi. MCF7 cells in a 24-well plate were transfected with this plasmid (250 ng) using FuGENE HD transfection reagent for24 h. Cells were treated with several concentrations of G418 (0.1-1 mg/mL) and an antibiotic for colony selection for 4 weeks, and thenone colony was selected for further culture. […]

Experiment [3] has as its system MCF7 cells. As to the kind of experiment: Cell cycle analysis by PI staining. Type of experiment: cell-based, human. To be noted: 48 h treatment. On the procedure: Cell cycle analysis by PI staining. MCF7 cells were treated with GTC365 for 48 h. Cells were trypsinized and washed with cold D-PBS. Cell pellets were subjected to 70% EtOH fixation at −20° C. overnight. Cells were incubated with RNase A and PI for 3 h at 37° C. and then kept in ice before FACS analysis (FACScanto II, BD Biosciences, San Jose, Calif.).
(§4) Since knockdown of hTERT arrests the cell cycle in the G0/G1 phase, the effects of GTC365 on the cell cycle were evaluated. GTC365 increased the population of the G0/G1 (from 57% to 71%) and G2/M phases (from 10% to 19%), whereas the S-phase was decreased (from 33% to 10%) in a dose-dependent manner with 48 h treatment. […] It is known that various anticancer drugs induce SLP in different cancer cells, leading to mitotic catastrophe as well as apoptotic cell death. Doxorubicin, one of the representative anticancer drugs, induced apoptosis and mitotic catastrophe accompanied by multiple nuclei with SLP. GTC365, like doxorubicin, appears to arrest cell proliferation and induce cell death, apoptosis, or mitotic catastrophe through downregulation of hTERT.

The test system of experiment [4] is MCF7 cells. Put plainly: Counting of live cells treated with GTC365. To be noted: low dose, nine days. Type of experiment: cell-based, human. The protocol:
Counting of live cells treated with GTC365. MCF7 cells were treated with DMSO or 0.5 μM of GTC365. Cells were trypsinized and then subjected to trypan blue exclusion staining for counting of live cells using microscopy every three days. Afterward, 70% of cells were recultured with fresh media and DMSO or GTC365. Relative cell numbers compared to the DMSO were obtained.
as §4

Take `CN(C)c1ccc(Nc2c3ccc(NC(=O)CCN4CCCC4)cc3nc3cc(NC(=O)CCN4CCCC4)ccc23)cc1` [BRACO-19, reference compound]: in the experiment with hTERT mRNA, the “effect on hTERT transcription / mRNA level” value is “decreased”. Besides, in the experiment on Telomeric G4 (0.5 and 1 equiv), the “Tm of telomeric G-quadruplex increased compared to that of the hTERT G-quadruplex” value is approximately 60%. Also, the “increase in Tm (ΔTm)” value with Telomeric G4 (0.5 equivalents) turned out to be 4.24 °C; in the experiment with Telomeric G4 (1 equivalent) it was 14.6 °C; in experiment [1] (0.5 equivalents) it was 2.41 °C; in experiment [1] (1 equivalent), 8.73 °C.
`N=C(N)NCCCS(=O)(=O)Nc1ccc(Nc2c3ccccc3nc3cc([N+](=O)[O-])ccc23)cc1` [GTC365]: the “effect on hTERT transcription / mRNA level” value with hTERT mRNA was “significant effect”. Moreover, the “decrease of hTERT mRNA level” value in the experiment on hTERT mRNA (72 h, 1 μM) is recorded as “up to 67%”. The “effect on hTERT transcription” value in experiment [2] is “no effect”. In addition, the “Tm increase of telomeric G-quadruplex less than that of the hTERT G-quadruplex” value with Telomeric G4 (1 and 2 equiv) was found to be 42%. Besides, the “increase in Tm (ΔTm)” value in the experiment on Telomeric G4 (1 equivalent) was 4.4 °C; with Telomeric G4 (2 equivalents) it was 7.5 °C; in experiment [1] (1 equivalent), 6.47 °C; in experiment [1] (2 equivalents) it was 12.9 °C and 12.92 °C. For the same compound, the “population in G2/M phase” value in the experiment on MCF7 cells [3] (from 10% without compound) is given as 19%. For the same compound, in the experiment on MCF7 cells [3] (from 33% without compound), the “population in S-phase” value is given as 10%. Also, the “population in G0/G1 phase” value in the experiment on MCF7 cells [3] (from 57% without compound) stood at 71%. The “cell death of cells showing SLP” value with MCF7 cells [4] was “underwent cell death”.
